Results reported in ChEMBL document CHEMBL5136989, “A review on the treatment of multiple myeloma with small molecular agents in the past five years” (Eur J Med Chem, 2022).
pIC50: −log10 of the molar value.

system: not listed separately; experiment: Anticancer activity in human multiple myeloma cells; assay type: functional, cell-based; conditions: Multiple myeloma cell

pIC50	SMILES
7.36	O=C(/C=C\n1cnc(-c2cc(C(F)(F)F)cc(C(F)(F)F)c2)n1)NNc1cnccn1 [SELINEXOR]
7.57	CC1(C)CCC(CN2CCN(c3ccc(C(=O)NS(=O)(=O)c4ccc(NCC5CCOCC5)c([N+](=O)[O-])c4)c(Oc4cnc5[nH]ccc5c4)c3)CC2)=C(c2ccc(Cl)cc2)C1 [VENETOCLAX]

system: Multiple myeloma cancer stem cell; experiment: Cytotoxicity against human Myeloma-stem like cells; assay type: functional, cell-based; conditions: not given

SMILES	pIC50
C=CCn1c(=O)c2cnc(Nc3ccc(N4CCN(C)CC4)cc3)nc2n1-c1cccc(C(C)(C)O)n1 [ADAVOSERTIB]	6.51

system: not listed separately; experiment: Immunomodulatory activity in human MM cells; assay type: functional, cell-based; conditions: multiple myeloma cell

pIC50	SMILES
9.52	Cc1ccc(NC(=O)NCc2ccc3c(c2)CN(C2CCC(=O)NC2=O)C3=O)cc1Cl (stereo not drawn)
7.89	O=C1CC[C@H](N2Cc3c(OCc4ccc(CN5CCOCC5)cc4)cccc3C2=O)C(=O)N1 [IBERDOMIDE]
7.09	Nc1cccc2c1CN(C1CCC(=O)NC1=O)C2=O (stereo not drawn) [LENALIDOMIDE]
7.46	Nc1cccc2c1C(=O)N(C1CCC(=O)NC1=O)C2=O (stereo not drawn) [POMALIDOMIDE]
3.71	O=C1CCC(N2C(=O)c3ccccc3C2=O)C(=O)N1 (stereo not drawn) [THALIDOMIDE]

system: Proteasome; experiment: Inhibition of proteasome (unknown origin); assay type: subcellular, Homo sapiens; conditions: not given

pIC50	SMILES
6.59	CC(=O)N[C@@H](CCc1ccccc1)C(=O)N[C@@H](CC(C)C)C(=O)N[C@@H](Cc1ccccc1)C(=O)N[C@@H](CC(C)C)C(=O)[C@]1(C)CO1
7.48	CC(C)C[C@H](NC(=O)[C@H](CCc1ccccc1)NC(=O)CN1CCOCC1)C(=O)N[C@@H](Cc1ccccc1)C(=O)N[C@@H](CC(C)C)C(=O)[C@@]1(C)CO1 [CARFILZOMIB]
6.58	CC[C@H](C)[C@H](NC(=O)[C@H]([C@@H](C)CC)N(C)C(C)=O)C(=O)N[C@H](C(=O)N[C@@H](CC(C)C)C(=O)[C@@]1(C)CO1)[C@@H](C)O [EPOXOMYCIN]
8.30	CC(C)C[C@H](NC(=O)CNC(=O)c1cc(Cl)ccc1Cl)B(O)O [IXAZOMIB]
8.40	NS(=O)(=O)OC[C@@H]1C[C@@H](n2ccc3c(N[C@H]4CCc5ccccc54)ncnc32)C[C@@H]1O [PEVONEDISTAT]

system: not listed separately; experiment: Induction of mitotic arrest in human multiple myeloma cells; assay type: functional, cell-based; conditions: multiple myeloma cell

pIC50	SMILES
5.30	CN(C)c1ccccc1CN1CCCN(Cc2ccccc2N(C)C)C1c1ccncc1
4.55	Cc1ccc(CN(CC(O)COc2cccc3[nH]ccc23)C(C)(C)C)cc1 (stereo not drawn)
8.21	CON(C)C(=O)N1N=C(c2cc(F)ccc2F)S[C@@]1(CCCN)c1ccccc1 [FILANESIB]
5.28	O=[N+]([O-])c1ccc(O)c2ncccc12 [NITROXOLINE]
7.57	c1cc(CN2CCCNCCNCCCNCC2)ccc1CN1CCCNCCNCCCNCC1 [PLERIXAFOR]

system: not listed separately; experiment: Cytotoxicity against human multiple myeloma cells by WST-1 assay; assay type: functional, cell-based; conditions: Multiple myeloma cell

SMILES	pIC50
CC(=O)c1cc([N+](=O)[O-])c(Sc2cccc(Cl)c2Cl)s1	5.22
CN(CCCNC(=O)c1ccc2nc3c(c(Cl)c2c1)CCCC3)Cc1ccccc1	4.55
CCN(CCCNC(=O)c1ccc2nc3c(c(Cl)c2c1)CCCC3)Cc1ccccc1	4.65
N#C/C(=C/c1cccc(Br)n1)C(=O)NCc1cccc(CNC(=O)/C(C#N)=C\c2cccc(Br)n2)c1	6.62
CCc1c(-c2ccc3[nH]ncc3c2)cnc(N)c1-c1ccc(O)cc1	6.12
CCc1c(-c2ccc(C(=O)NC)nc2)cnc(N)c1-c1ccc(O)cc1	5.87
C=CC(=O)N1CC/C(=C\c2ccc(F)c([N+](=O)[O-])c2)C(=O)/C(=C/c2ccc(F)c([N+](=O)[O-])c2)C1	7.37
CCCSc1nc(NCCN)c2nnn(Cc3ccc(Cl)cc3)c2n1	5.96
O=C1c2ccccc2C(=O)c2oc(-c3cccnc3)nc21	7.00
CC(NC(=O)/C(C#N)=C/c1cccc(/C=C(\C#N)C(=O)NC(C)c2ccccc2)c1)c1ccccc1 (stereo not drawn)	6.40
CS(=O)(=O)N1CCN(C(=S)Nc2ccc([N+](=O)[O-])cc2)CC1	4.47
CCCC(NC(=O)/C(C#N)=C/c1cccc(Br)n1)c1ccccc1 (stereo not drawn)	5.80
CN(C)CCC(CSc1ccccc1)Nc1ccc(S(=O)(=O)NC(=O)c2ccc(N3CCN(Cc4ccccc4-c4ccc(Cl)cc4)CC3)cc2)cc1[N+](=O)[O-] (stereo not drawn)	> 6.30
O=C(CBr)N1CC([N+](=O)[O-])([N+](=O)[O-])C1 [NIBROZETONE]	5.90
